Test results reported in patent publication US20220409593A1 (ARKUDA THERAPEUTICS, priority 2019, published 2022).

System: secreted mouse PGRN
Test: progranulin induction cellular assay (PGRN assay, ELISA-based readout)
Settings: progranulin secreted into cell culture medium, cells named in method: mouse primary microglia, primary cortical neurons, BV-2
Experimental: Cellular Assays: To measure the efficacy of compounds, a progranulin induction cellular assay in mouse primary microglia (pMG), primary cortical neurons, and BV-2 cell lines is used. BV-2 cells are split the day before plating into a 96well plate format at approximately 80%. Cells should be plated the day before and allowed for 1 hour attachment period and for 16 hour incubation. Levels of progranulin secreted into the cell culture medium or retained in the cell lysate can be quantified using an ELISA-based readout and measurement of secreted mouse PGRN in the medium was assessed by the methodology published by Ghidoni et al. 2012. Standard ELISA kits to measure PGRN are available from vendors such as Adipogen, R&D, and Biovendor.
Table D below presents the results of a PGRN assay as described above.

EC50 (Mus musculus)	SMILES	EC50
9650 nM	CN1CCC[C@@]2(CN=C(N3CCc4ccccc4[C@@H]3c3ccc(F)c(F)c3)O2)C1 (stereo in doubt) [Compound 3030]	
3860 nM	CN1CCC[C@]2(CN=C(N3CCc4ccccc4[C@@H]3c3cccc(F)c3F)O2)C1 (stereo in doubt) [Compound 3043]	
620 nM	Fc1ccc([C@H]2c3ccccc3CCN2C2=NCC3(CNCCC3F)O2)cc1 (stereo partly drawn) [Compound 3035, 10-fluoro-2-((S)-1-(4-fluorophenyl)-3,4-dihydroisoquinolin-2(1H)-yl)-1-oxa-3,7-diazaspiro[4.5]dec-2-ene]	
1680 nM	CN1CCC[C@]2(CN=C(N3CCc4ccccc4[C@@H]3c3ccc(F)cc3F)O2)C1 (single isomer, unassigned) [Compound 3014]	
880 nM	CN1CCC[C@@]2(CN=C(N3CCc4ccccc4[C@@H]3c3ccc(F)cc3F)O2)C1 (single isomer, unassigned) [Compound 3015]	
1590 nM	CN1CCC[C@@]2(CN=C(N3CCc4ccccc4[C@H]3c3cc(F)cc(F)c3)O2)C1 (single isomer, unassigned) [Compound 3013]	
181 nM	O[C@H]1CNC[C@]12CN=C(N1CCc3ccccc3[C@@H]1c1ccc(F)cc1)O2 [Compound 3177, (5S,9S)-2-((S)-1-(4-fluorophenyl)-3,4-dihydroisoquinolin-2(1H)-yl)-1-oxa-3,7-diazaspiro[4.4]non-2-en-9-ol]	
110 nM	N[C@H]1CC[C@@]2(CN=C(N3CCc4ccccc4[C@@H]3c3ccc(F)cc3)O2)C1 (single isomer, unassigned) [Compound 3080]	
940 nM	CN1CCC[C@H]([C@H]2CN=C(N3CCc4ccccc4[C@@H]3c3ccc(F)cc3)O2)C1 (single isomer, unassigned) [Compound 3153]	
119 nM	N[C@@H]1CC[C@@]2(CN=C(N3CCc4ccccc4[C@@H]3c3ccc(F)cc3)O2)C1 (single isomer, unassigned) [Compound 3081]	
206 nM	NC[C@H]1C[C@]2(CN=C(N3CCc4ccccc4[C@@H]3c3ccc(F)cc3)O2)C1 (single isomer, unassigned) [Compound 3161]	
50.1 nM	O=C1N[C@]2(CCCNC2)N=C1N1CCc2ccccc2[C@@H]1c1ccc(F)cc1 [Compound 3147]	
380 nM	CN1CCC2(CC1)COC(N1CCc3ccccc3[C@@H]1c1ccc(F)cc1)=N2 [Compound 3058, (S)-2-(1-(4-fluorophenyl)-3,4-dihydroisoquinolin-2(1H)-yl)-8-methyl-3-oxa-1,8-diazaspiro[4.5]dec-1-ene]	
1030 nM	CN1CCCC2(CN=C(N3CCc4ccccc4[C@@H]3c3cccc(F)c3F)O2)C1 (mixture of isomers) [Compound 3042]	
84.7 nM	Fc1ccc([C@H]2c3ccccc3CCN2C2=NCC([C@H]3CCNC3)O2)cc1 (single isomer, unassigned) [Compound 3064]	
110 nM	CN1CCC2(CC1)CN=C(N1CCc3ccccc3[C@@H]1c1ccc(F)cc1)O2 [Compound 3059, (S)-2-(1-(4-fluorophenyl)-3,4-dihydroisoquinolin-2(1H)-yl)-8-methyl-1-oxa-3,8-diazaspiro[4.5]dec-2-ene]	
> 10000 nM	CN1CCC[C@]2(CN=C(N3CCc4ccccc4[C@H]3c3cc(F)cc(F)c3)O2)C1 (single isomer, unassigned) [Compound 3012]	
110 nM	Fc1ccc([C@H]2c3ccccc3CCN2C2=N[C@@]3(CCCNC3)CO2)cc1 (single isomer, unassigned) [Compound 3054]	

EC50 (Mus musculus)	SMILES	EC50
96.6 nM	Fc1ccc([C@H]2c3ccccc3CCN2C2=NC[C@@H](C3CNC3)O2)cc1 (single isomer, unassigned) [Compound 3070]	
639 nM	N[C@H]1C[C@@]2(COC(N3CCc4ccccc4[C@@H]3c3ccc(F)cc3)=N2)C1 [Compound 3162]	
309 nM	Fc1ccc([C@H]2c3ccccc3CCN2C2=NC[C@@H](C3CCNCC3)O2)cc1 [Compound 3067]	
66.9 nM	Fc1ccc([C@H]2c3ccccc3CCN2C2=N[C@@H]([C@H]3CCNC3)CO2)cc1 (single isomer, unassigned) [Compound 3073]	
3430 nM	CN1CCC[C@@]2(CN=C(N3CCc4ccccc4[C@H]3c3ccc(F)c(F)c3)O2)C1 (stereo in doubt) [Compound 3032]	
429 nM	Fc1ccc([C@H]2c3ccccc3CCN2C2=N[C@H]([C@@H]3CCNC3)CO2)cc1 (single isomer, unassigned) [Compound 3071]	
	Fc1cc(F)cc([C@H]2c3ccccc3CCN2C2=NC[C@]3(CN4CCC3CC4)O2)c1 (stereo in doubt) [Compound 3039]	1050 nM
204 nM	N[C@H]1CC[C@@]2(COC(N3CCc4ccccc4[C@@H]3c3ccc(F)cc3)=N2)C1 [Compound 3084, (5S,7S)-2-((S)-1-(4-fluorophenyl)-3,4-dihydroisoquinolin-2(1H)-yl)-3-oxa-1-azaspiro[4.4]non-1-en-7-amine]	
77.7 nM	Fc1ccc([C@H]2c3ccccc3CCN2C2=N[C@H](C3(F)CNC3)CO2)cc1 (single isomer, unassigned) [Compound 3157]	
55 nM	Fc1ccc([C@H]2c3ccccc3CCN2C2=NC[C@@H]([C@@H]3CCNC3)O2)cc1 (single isomer, unassigned) [Compound 3066]	
1380 nM	Fc1ccc([C@H]2c3ccccc3CCN2C2=NC[C@@]3(CCN(CCC(F)(F)F)C3)O2)cc1 [Compound 3174, (S)-2-((S)-1-(4-fluorophenyl)-3,4-dihydroisoquinolin-2(1H)-yl)-7-(3,3,3-trifluoropropyl)-1-oxa-3,7-diazaspiro[4.4]non-2-ene]	
200 nM	Fc1ccc([C@H]2c3ccccc3CCN2C2=NC[C@]3(CNC[C@@H]3F)O2)cc1 (single isomer, unassigned) [Compound 3169]	
	CN1CCC[C@]2(CN=C(N3CCc4ccccc4[C@@H]3c3cccc(F)c3)O2)C1 (single isomer, unassigned) [Compound 3006]	1000 nM
1770 nM	CN1CCCC2(COC(N3CCc4ccccc4[C@@H]3c3ccc(F)cc3)=N2)C1 (some centres unmarked) [Compound 3055]	
3100 nM	CN1CCC[C@@H]([C@H]2CN=C(N3CCc4ccccc4[C@@H]3c3ccc(F)cc3)O2)C1 (single isomer, unassigned) [Compound 3151]	
1040 nM	Fc1ccc([C@H]2c3ccccc3CCN2C2=NC[C@]3(CCN(CCC(F)(F)F)C3)O2)cc1 [Compound 3173, (R)-2-((S)-1-(4-fluorophenyl)-3,4-dihydroisoquinolin-2(1H)-yl)-7-(3,3,3-trifluoropropyl)-1-oxa-3,7-diazaspiro[4.4]non-2-ene]	
176 nM	CN1CC[C@@]2(CN=C(N3CCc4ccccc4[C@@H]3c3ccc(F)cc3)O2)C1 [Compound 3167, (S)-2-((S)-1-(4-fluorophenyl)-3,4-dihydroisoquinolin-2(1H)-yl)-7-methyl-1-oxa-3,7-diazaspiro[4.4]non-2-ene]	
406 nM	CN1CCC[C@H]([C@@H]2CN=C(N3CCc4ccccc4[C@@H]3c3ccc(F)cc3)O2)C1 (single isomer, unassigned) [Compound 3152]	

SMILES	EC50 (Mus musculus)	EC50
Fc1ccc([C@H]2c3ccccc3CCN2C2=NC[C@]3(CN4CCC3(F)CC4)O2)cc1 (single isomer, unassigned) [Compound 3033]	2380 nM	
Fc1ccc([C@H]2c3ccccc3CCN2C2=NC[C@]3(CN4CCC3CC4)O2)cc1F (stereo in doubt) [Compound 3025]	4060 nM	
Fc1ccc([C@H]2c3ccccc3CCN2C2=NO[C@@]3(C2)CN2CCC3CC2)cc1 [Compound 3028, 2((S)-1-(4-fluorophenyl)-3,4-dihydroisoquinolin-2(1H)-yl)-4-4-azaspiro[bicyclo[2.2.2]octane-2,5oxazole]]	> 3160 nM	
Fc1cccc([C@@H]2c3ccccc3CCN2C2=NC[C@@]3(CN4CCC3CC4)O2)c1 (stereo in doubt) [Compound 3022]	1490 nM	
Fc1cc(F)cc([C@H]2c3ccccc3CCN2C2=NC[C@@]3(CN4CCC3CC4)O2)c1 (racemic) [Compound 3036]	3750 nM	
Fc1ccc([C@H]2c3ccccc3CCN2C2=N[C@]3(CO2)CN2CCC3CC2)cc1 (single isomer, unassigned) [Compound 3057A]	231 nM	
Fc1ccc([C@H]2c3ccccc3CCN2C2=NC[C@@]3(CN4CCC3CC4)O2)cc1 (single isomer, unassigned) [Compound 3001]	100 nM	
Fc1ccc([C@H]2c3ccccc3CCN2C2=NC[C@@]3(CN4CCC3CC4)O2)c(F)c1 (single isomer, unassigned) [Compound 3016]	860 nM	
Fc1ccc([C@H]2c3ccccc3CCN2C2=NC[C@H](C34CCN(CC3)CC4)O2)cc1 [Compound 3047, 2-((S)-1-(4-fluorophenyl)-3,4-dihydroisoquinolin-2(1H)-yl)-5-(quinuclidin-4-yl)-4,5-dihydrooxazole]	> 10000 nM	
Fc1cccc([C@H]2c3ccccc3CCN2C2=NC[C@@]3(CN4CCC3CC4)O2)c1 (stereo in doubt) [Compound 3020]	9980 nM	
Fc1ccc([C@H]2c3ccccc3CCN2C2=NC[C@@H](C34CCN(CC3)CC4)O2)cc1 [Compound 3048, 2-((S)-1-(4-fluorophenyl)-3,4-dihydroisoquinolin-2(1H)-yl)-5-(quinuclidin-4-yl)-4,5-dihydrooxazole]	110 nM	
c1ccc([C@H]2c3ccccc3CCN2C2=NC[C@@]3(CN4CCC3CC4)O2)cc1 (single isomer, unassigned) [Compound 3041]	1720 nM	
Fc1cc(F)cc([C@@H]2c3ccccc3CCN2C2=NC[C@@]3(CN4CCC3CC4)O2)c1 (stereo in doubt) [Compound 3038]	3910 nM	
Fc1cccc([C@H]2c3ccccc3CCN2C2=NC[C@]3(CN4CCC3CC4)O2)c1F (single isomer, unassigned) [Compound 3019]	300 nM	
